From ChEMBL document CHEMBL1136607, “Novel thrombin inhibitors incorporating non-basic partially saturated heterobicyclic P1-arginine mimetics” (Bioorg Med Chem Lett, 2003)

Tests used:
Prothrombin = Prothrombin (Homo sapiens, UniProt P00734); experiment: In vitro inhibitory activity against Thrombin
Serine protease 1 = Serine protease 1 (Homo sapiens, UniProt P07477); experiment: In vitro inhibitory activity against Trypsin
[1] = target: Thrombin & trypsin (Homo sapiens) (UniProt P00734+P07477+P07478+P35030); experiment: Selectivity ratio of thrombin to trypsin; assay type: protein assay
Coagulation factor X = Coagulation factor X (Homo sapiens, UniProt P00742); experiment: In vitro inhibitory activity against Factor Xa
Homo sapiens [2] = organism: Homo sapiens; experiment: Concentration required to double the activated partial thromboplastin time in human plasma (APTT); assay type: functional, cell-free
Homo sapiens [3] = organism: Homo sapiens; experiment: Concentration required to double the thrombin time in human plasma (TT); assay type: functional, cell-free
Homo sapiens [4] = organism: Homo sapiens; experiment: Concentration required to double the […] prothrombin time in human plasma (PT); assay type: functional, cell-free

Serine protease 1, sequence (P07477 whole entry): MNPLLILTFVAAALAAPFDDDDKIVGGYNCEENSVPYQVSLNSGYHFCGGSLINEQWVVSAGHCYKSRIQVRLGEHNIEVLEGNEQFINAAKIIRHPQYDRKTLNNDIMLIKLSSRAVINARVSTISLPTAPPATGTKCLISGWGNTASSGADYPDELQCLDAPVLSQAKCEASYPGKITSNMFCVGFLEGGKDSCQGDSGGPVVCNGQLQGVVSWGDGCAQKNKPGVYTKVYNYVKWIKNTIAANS
Coagulation factor X, sequence (P00742 41-179 limits assumed): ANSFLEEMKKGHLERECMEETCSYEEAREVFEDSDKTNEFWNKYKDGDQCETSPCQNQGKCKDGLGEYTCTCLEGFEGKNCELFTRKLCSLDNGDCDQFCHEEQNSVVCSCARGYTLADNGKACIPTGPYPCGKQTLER
Coagulation factor X, sequence (P00742 235-488 limits assumed): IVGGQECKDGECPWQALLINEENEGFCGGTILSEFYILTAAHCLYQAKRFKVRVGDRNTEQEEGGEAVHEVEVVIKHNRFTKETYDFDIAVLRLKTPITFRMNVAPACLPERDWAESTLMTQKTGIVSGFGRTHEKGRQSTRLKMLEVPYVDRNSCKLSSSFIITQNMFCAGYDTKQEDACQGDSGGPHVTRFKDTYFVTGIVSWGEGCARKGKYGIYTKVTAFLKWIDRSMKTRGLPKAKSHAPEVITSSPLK

Ki (Prothrombin) [µM] | Ki (Serine protease 1) [µM] | Ratio [1] | Ki (Coagulation factor X) [µM] | Compound | Concentration (Homo sapiens [2]) [µM] | Concentration (Homo sapiens [3]) [µM] | Concentration (Homo sapiens [4]) [µM]
5.38 | > 68.3 | > 13 | > 75.4 | O=C(NC1CCc2n[nH]cc2C1)[C@@H]1CCCN1C(=O)[C@@H](CC1CCCCC1)NS(=O)(=O)Cc1ccccc1 (stereo partly drawn) | – | – | –
> 35.1 | > 68.3 | – | > 75.4 | Nc1ncc2c(n1)CCC(NC(=O)[C@@H]1CCCN1C(=O)[C@@H](CC1CCCCC1)NS(=O)(=O)Cc1ccccc1)C2 (stereo partly drawn) | – | – | –
12.9 | 409 | 32 | 57.6 | Nc1ncc2c(n1)CCC(CNC(=O)[C@@H]1CCCN1C(=O)[C@H](N)C(c1ccccc1)c1ccccc1)C2 (stereo partly drawn) | – | – | –
– | > 68.3 | > 478 | > 75.4 | O=C(NCC1CCc2n[nH]cc2C1)[C@@H]1CCCN1C(=O)[C@@H](CC1CCCCC1)NS(=O)(=O)Cc1ccccc1 (stereo partly drawn) | 42.3 | 11 | 78.3
0.69 | > 68.3 | > 99 | > 75.4 | N[C@H](Cc1ccc(Cl)c(Cl)c1)C(=O)N1CCC[C@H]1C(=O)NCC1CCc2n[nH]cc2C1 (stereo partly drawn) | – | – | –
> 35.1 | > 68.3 | – | > 75.4 | CC(C)(C)OC(=O)N[C@H](Cc1ccc(Cl)c(Cl)c1)C(=O)N1CCC[C@H]1C(=O)NCC1CCc2nc(N)ncc2C1 (stereo partly drawn) | – | – | –
– | 19.9 | 71 | 84.8 | O=C(O)CN[C@H](CC1CCCCC1)C(=O)N1CCC[C@H]1C(=O)NCC1CCc2n[nH]cc2C1 (stereo partly drawn) | 28 | 4.9 | 55.3
– | 730 | – | – | Cn1cc2c(n1)CCC(NC(=O)[C@@H]1CCCN1C(=O)[C@@H](CC1CCCCC1)NS(=O)(=O)Cc1ccccc1)C2 (stereo partly drawn) | – | – | –
> 35.1 | > 68.3 | – | > 75.4 | Nc1ncc2c(n1)CCC(CNC(=O)[C@@H]1CCCN1C(=O)[C@@H](CC1CCCCC1)NS(=O)(=O)Cc1ccccc1)C2 (stereo partly drawn) | – | – | –
27.3 | 416 | 15 | – | O=C(NC1CCc2c[nH]cc2C1)[C@@H]1CCCN1C(=O)[C@@H](CC1CCCCC1)NS(=O)(=O)Cc1ccccc1 (stereo partly drawn) | – | – | –
0.53 | – | – | 85.2 | CC(C)(C)OC(=O)N[C@@H](C(=O)N1CCC[C@H]1C(=O)NCC1CCc2n[nH]cc2C1)C(c1ccccc1)c1ccccc1 (stereo partly drawn) | 81 | 29.2 | 105
> 35.1 | > 68.3 | – | > 75.4 | Nc1ncc2c(n1)CCC(CNC(=O)[C@@H]1CCCN1C(=O)[C@H](N)Cc1ccc(Cl)c(Cl)c1)C2 (stereo partly drawn) | – | – | –
3.33 | > 68.3 | > 21 | > 75.4 | CC(C)(C)OC(=O)N[C@H](Cc1ccc(Cl)c(Cl)c1)C(=O)N1CCC[C@H]1C(=O)NCC1CCc2n[nH]cc2C1 (stereo partly drawn) | – | – | –
– | 217 | – | 82.1 | N[C@@H](C(=O)N1CCC[C@H]1C(=O)NCC1CCc2n[nH]cc2C1)C(c1ccccc1)c1ccccc1 (stereo partly drawn) | – | – | –
– | 342 | – | 111 | O=C(NCC1CCc2ncncc2C1)[C@@H]1CCCN1C(=O)[C@@H](CC1CCCCC1)NS(=O)(=O)Cc1ccccc1 (stereo partly drawn) | – | – | –
